The conditions of data set [1]: cited from earlier work.
For data set [2] the following is noted: cited from earlier work. The source holds these as a separate data set.
For data set [3] the following is noted: alone; cited from earlier work.
The next data set concerns FABP4 expression. As to the kind of experiment: Immunoblot of FABP4 in bladder cancer cell lines. In kind it is cell-based, human. As to conditions: panel of bladder cancer cell lines. The method, then:
Western Blot Analysis: Western blots were performed using standard protocols with semi-dry transfer Trans-Blot® SD (Bio-Rad Hercules, CA), Li-Cor Odyssey Blocking buffer, and imaging with LiCor Odyssey Imaging System (LI-COR Lincoln, NE). Briefly, cells were grown in 6-well plates and harvested using Complete Lysis-M with protease and phosphatase inhibitors (Roche Applied Science). Western blot analyses were performed using standard protocols with semi-dry transfer Trans-Blot SD (Bio-Rad), LI-COR Odyssey Blocking buffer, and imaging with LI-COR Odyssey Imaging System (LI-COR). The anti-PPARG C26H12, anti-PPARG 81B8, anti-FABP4 D25B3, and anti-CEACAM5 CB30 antibodies were obtained from Cell Signaling Technology. The anti-ACSL5 ab57210 and anti-HMCGS2 EPR8642 antibodies were obtained from Abcam. The anti-VCL (vinculin) V9264 antibody was obtained from Sigma-Aldrich. All primary antibodies were tested at 1:1,000 dilutions, with the exception of anti-VCL, which was tested at a 1:5,000 dilution. Secondary goat anti-mouse 926-68020, and goat-anti-rabbit 926-32211 antibodies were obtained from LI-COR Biosciences and used at 1:15,000 dilutions.

For the next data set, the system named is 5637 cells. The data set can be described thus: Proliferation assay in PPARG-amplified 5637 cells. As to conditions: Homo sapiens; data not shown. The format is cell-based. As for the experimental part: To determine if treatment of PPARG-activated bladder cancer cell lines with PPARG modulators impacted viability, a variety of compounds were tested in proliferation assays.

The subject of another data set is UM-UC-9 cells. As to the kind of experiment: Direct cell counting dose-response proliferation assay. The format is cell-based, human. The method, then: To determine whether PPARG modulators affect the proliferation and/or viability of PPARG-activated bladder cancer cell lines, a direct cell counting-based assay was performed. This assay likely avoids potential artifacts associated with the use of an ATP content-based assay, given that PPAR modulators are known to regulate cellular metabolic activity. […] These IC50 values align well with the calculated IC50s from both the cell-based reporter gene assay (FIG. 8A) and the biochemical corepressor assay (FIG. 8D).
(§1) Proliferation Assays: To enable cell-counting experiments, cell lines were transduced with a lentiviral vector encoding nuclear-targeted GFP, TagGFP2-H2B (Evrogen), and stable pools generated following selection for puromycin resistance. Cell lines were maintained for at least 7 days following selection prior to expansion and seeding into 96- or 384-well plates for further analysis. For kinetic proliferation assays, 96-well plates (n 1% 4 per condition) were imaged and counted every two hours using IncuCyte Zoom (Essen BioScience). Media and compounds were replaced approximately every 3-4 days. For endpoint assays to measure dose-response, cells were plated in 384-well plates, dosed with compound, and upon reaching approximately 70% to 90% confluence in control wells, cells were either counted using fluorescence imaging (Incu-Cyte Zoom) or incubated with CyQuant (Thermo Fisher) at the indicated time and plates were read with a fluorescent plate reader.

Data set [4] deals with PPARG-activated bladder cancer cell lines. The data set can be described thus: Proliferation assays in PPARG-activated bladder cancer cell lines. In kind it is cell-based, human. The note with it: 100 nM-500 nM. As for the experimental part: A panel of bladder cancer cell lines with PPARG modulators in colony formation assays was then tested (FIG. 10), kinetic proliferation assays (IncuCyte Zoom; Essen Bioscience) using cell lines treated with a single concentration of compound (100 nM-500 nM), and end-point dose-response assays (CellTiter Glo or CyQuant).
This assay was expanded to include an additional 8 representative bladder cancer cell lines, including cell lines with PPARG amplification, RXRA p.S427F mutation, activated gene signature, and control cell lines with low level expression of PPARG and target genes. […] Representative data for the UM-UC-9 cell line are shown in FIG. 6B, and is tabulated for the tested bladder cancer cell lines in Table 1. […] This significant (P<0.01) preferential sensitivity to PPARG inverse-agonists, but not antagonists, is maintained across all of the PPARG-activated cell lines in the panel, including the RXRA p.S427F cell line, HT-1197 (41), the PPARG-amplified cell lines, 5637 and UM-UC-9, and the PPARG activation gene signature cell lines Cal29, UM-UC-1, and RT112/84 (FIG. 12). […] Similar results were obtained with these cell lines in parallel studies using clonogenic assays to quantify colony-forming ability (FIG. 10).
as §1

Data set [5] has as its system PPARG-activated pancreatic and colorectal cancer cell lines. The data set can be described thus: Kinetic proliferation assay in pancreatic and colorectal cancer cell lines. As to conditions: 500 nM. The format is cell-based. The source says:
To enable cell-counting, cell lines were transduced with a lentiviral vector encoding nuclear-targeted GFP (TagGFP2-H2B), and stable pools generated following selection for puromycin-resistance. Cell lines were maintained for at least 7 days following selection prior to expansion and seeding into 96-well plates for further analysis. For kinetic proliferation assays, 96-well plates were imaged in phase-contrast and green fluorescence mode every two hours using IncuCyte Zoom (Essen BioScience, Ann Arbor MI). Using IncuCyte software, the number of fluorescent nuclei were counted to monitor quantitative changes in cell number over time. Media and compounds were replaced approximately every 3-4 days.
DMSO treatment was also included as a vehicle control.

The next data set concerns the target T1, PPARA (Homo sapiens, UniProt Q07869).
T1 sequence (Q07869 1-468): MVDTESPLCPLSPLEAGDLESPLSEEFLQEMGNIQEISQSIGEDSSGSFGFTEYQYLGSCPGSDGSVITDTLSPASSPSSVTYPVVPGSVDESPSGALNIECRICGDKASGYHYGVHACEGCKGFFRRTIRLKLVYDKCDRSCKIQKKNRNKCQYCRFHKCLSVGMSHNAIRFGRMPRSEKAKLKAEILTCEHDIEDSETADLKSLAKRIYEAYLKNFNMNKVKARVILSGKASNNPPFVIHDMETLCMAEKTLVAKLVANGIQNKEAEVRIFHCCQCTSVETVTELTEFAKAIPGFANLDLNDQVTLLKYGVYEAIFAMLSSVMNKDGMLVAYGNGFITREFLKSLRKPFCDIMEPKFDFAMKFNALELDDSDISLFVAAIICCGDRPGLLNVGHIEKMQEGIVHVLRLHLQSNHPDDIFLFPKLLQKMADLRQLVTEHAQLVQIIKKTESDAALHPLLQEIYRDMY
The note with it: read-out: apparent Ki; cited from earlier work.

Another data set relates to DLBCL cells. As to conditions: 1-15 uM; cited from earlier work.
A further data set deals with bladder cancer. The note with it: rodents; cited from earlier work.
Data set [6] concerns urinary bladder carcinogenesis. The note with it: rats; cited from earlier work.
Data set [7] has as its target Terbium-labeled PPARG ligand binding domain (PPARG-LBD) (Macaca mulatta (Rhesus macaque)) (UniProt O18924). As to the kind of experiment: TR-FRET PPARG-NCOR1 interaction assay; with GW9662 (data not shown). (In general: Time-resolved FRET reads energy transfer from a long-lived donor to a nearby acceptor.)
Data set [8] has the same target. The data set can be described thus: TR-FRET PPARG-NCOR1 interaction assay; with SR10221 (data not shown).
Data set [9] shares this target. The data set can be described thus: TR-FRET PPARG-NCOR1 interaction assay; with T0070907 (data not shown).

These results are taken from US11896678B2, “Compositions and methods for treatment of peroxisome proliferator-activated receptor gamma (PPARG) activated cancer” (THE BROAD INSTITUTE, INC., priority 2017, dated 2024).

Ends that are not written are not given here.

For `N.N.O=C([O-])C1(C(=O)[O-])CCC1.[Pt+2]` [Carboplatin, platinum, diammine [1,1-cyclobutane-dicarboxylato(2-)-0,0′]-(SP-4-2)], the solubility in water entry in [1] is recorded as “approximately 14 mg/mL”. In [2], the “pH of a 1% solution” value is listed as 5-7. Moreover, in data set [3], the oral bioavailability result is given as “approximately 4%”.

As to `O=C(Nc1ccncc1)c1cc([N+](=O)[O-])ccc1Cl` [T0070907, 2-Chloro-5-nitro-N-4-pyridinyl-benzamide], the “expression of FABP4” value in the data set on FABP4 expression was “able to reduce expression of FABP4”. The IC50 in the data set with 5637 cells was 20 to 30 nM; in the data set on UM-UC-9 cells (Homo sapiens, UM-UC-9, read-out: calculated IC50, proliferation) it was 39 nM. Besides, the “effect on cell proliferation compared with DMSO control” value in the data set with UM-UC-9 cells is recorded as “significantly reduced proliferation”. For the same molecule, the “sensitivity of cell lines” value in data set [4] and in [5] was “preferentially sensitive” throughout. Also, the Ki on PPARA was around 850 nM. In the data set on DLBCL cells, the “growth of DLBCL cells” value was “attenuate growth”.

`CN(CCOc1ccc(CC2SC(=O)NC2=O)cc1)c1ccccn1` (stereo not shown) [rosiglitazone]: the “carcinogenic effect, bladder cancer” value with bladder cancer is given as “not”. Moreover, the “urinary bladder carcinogenesis compared with OH-BBN alone” value in data set [6] was “potentiate urinary bladder carcinogenesis”.

B1: fluorescently labeled NCoR1 ID2 corepressor peptide (NCoR/NCOR1) (peptide)
peptide: DPASNLGLEDIIRKALMGSFDDK
modifications: also: fluorescently labeled, site not given here
As for B1, the fold induction of signal was 2.5 fold in data set [7], below 2 fold in [8] and 6 to 8 fold in [9].
